Data set [1] has as its system BxPC-3 pancreatic cancer cells. Kind of data set: SRB cell viability assay, BxPC-3. The format is cell-based. Particulars: Homo sapiens, BxPC-3, Pancreas. As to the method: (§1) The effect of OSC inhibition was evaluated in additional cancer cell lines as well. Cancer cell lines may be purchased from ATCC (Manassas, Va.). The SRB assay has been employed for determination of the inhibitory effects of RO 48-8071 on growth of different cancer cells. Cells were seeded into 96-well plates and incubated overnight at 37° C. with 5% CO2. The culture medium was removed after 24 hours, and cells were washed with DMEM/F12 medium and then treated with various concentrations of RO 48-8071 in 5% FBS culture medium for 24 and 48 hours. Surviving or adherent cells were fixed in situ by withdrawing the growth medium, adding 100 μl PBS and 100 μl 50% trichloroacetic acid and then incubating at 4° C. for one hour. Cells were washed with ice-cold water, dried at room temperature (RT), and then stained with 50 μl 4% SRB for eight minutes at RT. Unbound dye was removed by washing with cold 1% acetic acid for five times, and plates were dried at RT. Bound stain was solubilized with 150 μl 10 mM Tris buffer and absorbance of samples was read at 520 nm with a SpecTRA MAX 190 microplate reader (Molecular Devices, Sunnyvale, Calif.). Six wells were used for each concentration, and each experiment was performed two to three times.
Effect of RO 48-8071 on pancreatic cancer cell line BxPC-3 viability. […]

The subject of data set [2] is PC-3 prostate cancer cells. Nature of the data set: SRB cell viability assay, PC-3. The format is cell-based. Particulars: Homo sapiens. As to the method: as §1
Effect of RO 48-8071 on prostate cancer cell line PC-3 viability. […]

For the next data set, the system named is A549 lung cancer cells. Kind of data set: SRB cell viability assay, A549. Type of data set: cell-based. To be noted: Homo sapiens. As to the method:
as §1
Effect of RO 48-8071 on lung cancer cell line A549 viability. […] The culture mediums employed 10% FBS F-12K for culture and 5% FBS F-12K for treatment.

Data set [3] concerns PC-3 human prostate cancer xenograft. Nature of the data set: PC-3 prostate tumor xenograft in nude mice. As to the method:
Male athymic nu/nu nude mice, 6 weeks-old (21-25 g) were purchased from Harlan Laboratories, Inc. Human prostate cancer PC-3 cells, […] in 0.15 ml solution mixed with matrigel and DMEM/F12 medium (1/1, v/v) were injected into each flank of mouse subcutaneously, and both flanks of each mouse were injected. When tumor volume reached around 100 mm3, animals were randomly assigned to three groups and the treatment started with Ro 48-8071 (5 mg/kg/day or 20 mg/kg/day) via tail-vein injection for five days, followed by same treatment every other day for seven additional times as shown in the FIG. 14A. Animals in control group received the vehicle alone under identical conditions.

In data set [4] the test system is PC-3 and DU-145 human prostate cancer cells. Nature of the data set: Annexin V / PI apoptosis assay, prostate cancer cells. Type of data set: cell-based. To be noted: 24 hours. From the text: Apoptosis is a normal physiologic process which occurs during embryonic development as well as in maintenance of tissue homeostasis. The apoptotic program is characterized by certain morphologic features, including loss of plasma membrane asymmetry and attachment, condensation of the cytoplasm and nucleus, and internucleosomal cleavage of DNA. […]. In apoptotic cells, the membrane phospholipid phosphatidylserine (PS) is translocated from the inner to the outer leaflet of the plasma membrane, thereby exposing PS to the external cellular environment. Annexin V is a 35-36 kDa Ca2+ dependent phospholipid-binding protein that has a high affinity for PS, and binds to cells with exposed PS. Annexin V may be conjugated to fluorochromes including FITC. […]
FITC Annexin V staining precedes the loss of membrane integrity which accompanies the latest stages of cell death resulting from either apoptotic or necrotic processes. […] However, when apoptosis is measured over time, cells can be often tracked from FITC Annexin V and PI negative (viable, or no measurable apoptosis), to FITC Annexin V positive and PI negative (early apoptosis, membrane integrity is present) and finally to FITC Annexin V and PI positive (end stage apoptosis and death). […]

The mark [5] stands for this setting: 24 hours, read-out: IC50 (μM) (24 hours).
[6] abbreviates: 48 hours, read-out: IC50 (μM) (48 hours).

Counter-ions that a name gives are not always drawn. Like-named read-outs stand apart in the source and are kept apart here.

Regarding `C=CCN(C)CCCCCCOc1ccc(C(=O)c2ccc(Br)cc2)c(F)c1` [Ro 48-8071, 4′-[6-(Allylmethylamino)hexyloxy]-4-bromo-2′-fluorobenzophenone fumarate], the half-inhibitory concentration (IC50) in data set [1] (setting [5]) was 11.4 ± 0.621 µM; in data set [1] (setting [6]), 7.11 ± 0.102 µM; in data set [2] (setting [5]) it was 17.8 ± 1.29 µM; in data set [2] (setting [6]), 11.1 ± 0.35 µM; with A549 lung cancer cells (setting [5]) it was 13.5 ± 0.928 µM; in the data set on A549 lung cancer cells (setting [6]) it was 9.26 ± 0.454 µM. Besides, the “tumor volume versus control group” value in data set [3] (5 or 20 mg/kg/day, tail-vein injection, P<0.05 ANOVA, FIG. 14A) was “Significant differences compared with control group”. The “toxicity at doses used for inhibiting tumor growth” value in data set [3] (PC-3 tumor-bearing nude mice) is reported as “non-toxic”. The “animal weight, control versus treated groups” value in data set [3] (PC-3 tumor-bearing nude mice, FIG. 14B) is listed as “No significant difference”. The “apoptosis and cell death (annexin V / PI positive cells)” value in data set [4] is “Induces Apoptosis and Cell Death”.

The term IC50 denotes the concentration needed to halve the response being measured.

The values are drawn from patent US10143686B2, “Oxidosqualene cyclase as a protein target for anticancer therapeutics” (The Curators of the University of Missouri, priority 2010, dated 2018).
